Counter-ions that a name gives are not always drawn. Like-named read-outs stand apart in the source and are kept apart here.
What was measured:
[1] = test system: thyroid hormone receptor (THR); test: hTRE_HeLa THR transcriptional activity (nano luciferase reporter) assay with rat liver S9 mixtures; format: cell-based, human; details: hTRE_HeLa cells; for THR agonist classification (positive if >= 10% of activity of 100 nM T3): parent, inactive S9, phase I and phase I+II groups, before and after S9 reaction; for THR transcriptional activity after phase I+II reaction: phase I+II group
Experimental: The hTRE_HeLa cell line, obtained from the MFDS, was used to detect thyroid hormone receptor (THR) agonists through transcriptional activation analysis, utilizing a stably modified thyroid receptor-reactive human cervical cancer cell line along with one plasmid from a nano luciferase reporter. For cell line maintenance, minimum essential media (MEM, Gibco, USA) supplemented with 10% FBS, 1% penicillin/streptomycin (P/S), and 1 ml Hygromycin B (InvivoGen, USA) was used. The hTRE_Hela cell line was conditioned and treated in test medium containing Phenol red free of MEM (Gibco) supplemented with 10% charcoal-stripped FBS (CS-FBS), 1% P/S, and 1 mL Hygromycin B. hTRE_HeLa cells were maintained in 37°C and 5% CO2 incubator. hTRE_HeLa cells were seeded with 5 × 10^3 cells per well in the 96-well plate for 24 h and treated with EDCs and S9 mixtures for 48 h.
The S9 mixture for phase I metabolism was prepared with 0.1 mg/ml rat liver S9, 2 × 10^-3 M NADPH, 3 × 10^-2 M G-6-P, 5 × 10^-2 M MgCl2, and 3 units/ml G-6-PD. For phase I+II metabolism, 2 × 10^-2 M GSH, 5 × 10^-3 M UDPGA, and 2 × 10^-5 M PAPS were additionally included to the S9 mixture. […] The S9 mixtures were added to the aforementioned test medium to be diluted 10 times. After 24 h of seeding, hTRE_HeLa cells were treated with the S9 mixtures pre-incubated for 6 h and EDCs with different concentrations.
The vehicle control (VC) included only 0.145% of DMSO containing 9 × 10^-12 M 9-cis-Retinoic acid. The final volume for each well was 100 μl. […] After treatment, 10 μl of treated medium was transferred to a new plate, to which 40 μl of test medium and 50 μl of Nano-Glo luciferase reagent (Promega, USA) were added. After a 10 min incubation, the luciferase activity was measured using a luminescence reader (Glomax Discover, Promega). For data analysis, relative transcriptional activity (RTA) of PC was set to 100%, and RTA of VCcontrol was set to 0%. The % to PC value of EDCs was calculated to (EDCs – VCtest) / (PC – VCcontrol). The VCtest was set to the VC for each test group. If the EDC was greater than or equal to 10% of PC, the EDC was determined to be a THR agonist-positive chemical. The data were described by the mean ± standard deviation.

[2] = Sprague-Dawley, rat, pH 7.4
[3] = In vitro metabolic reaction using rat liver S9 fraction with LC-MS / GC-MS metabolic profiling; details: for Metabolic rate (parent decreased by) after the reaction: rat liver S9, phase I+II biotransformation; for Metabollic rate: rat liver S9, phase I+II reaction vs inactivated S9 control, BDE28 and 4,4'-DIDBP by GC-MS, others by LC-MS
[4] = concentration not given, RTA with 100 nM T3 (PC) = 100%

CC12CC1(C)C(=O)N(c1cc(Cl)cc(Cl)c1)C2=O (centres unmarked) [Procymidone, procymidone]
THR agonist classification (positive if >= 10% of activity of 100 nM T3) [1]: THR agonistic negative | Metabollic rate [2]: 55%

Cc1cc(C(C#N)c2ccc(Cl)cc2)c(Cl)cc1NC(=O)c1cc(I)cc(I)c1O (centres unmarked) [Closantel, closantel]
THR agonist classification (positive if >= 10% of activity of 100 nM T3) [1]: THR agonistic negative | Metabollic rate [2]: 49%

O=C(O)CCc1cc(I)c(Oc2ccc(O)cc2)c(I)c1 [DITPA, 3,5-diiodothyropropionic acid]
THR agonist classification (positive if >= 10% of activity of 100 nM T3) [1]: THR agonistic positive | THR transcriptional activity after phase I+II reaction [1, 4]: 30.7 ± 1.8% | Metabolic rate (parent decreased by) after the reaction [3]: 29%

N[C@@H](Cc1cc(I)c(Oc2ccc(O)c(I)c2)c(I)c1)C(=O)O [T3, 3,3’,5-triiodo-L-thyronine]
Induction compared to the VC value ([1]; T3 100 nM as positive control): ≥ 4.8 fold | THR agonist classification (positive if >= 10% of activity of 100 nM T3) [1]: THR agonistic positive | Metabolic rate (parent decreased by) after the reaction [3]: 3%

C[C@]12CC[C@@H]3c4ccc(O)cc4CC[C@H]3[C@@H]1CC[C@@H]2O [E2, 17β-estradiol]
THR agonist classification (positive if >= 10% of activity of 100 nM T3) [1]: THR agonistic negative | Metabollic rate [3]: 44%

O=C(Nc1ccc(Oc2ccc(Cl)cc2)c(Cl)c1)c1cc(I)cc(I)c1O [Rafoxanide, rafoxanide]
THR agonist classification (positive if >= 10% of activity of 100 nM T3) [1]: THR agonistic negative | Metabollic rate [3]: 51%

COc1c(O)cc2oc(-c3ccc(O)cc3)cc(=O)c2c1O [Hispidulin, hispidulin]
THR agonist classification (positive if >= 10% of activity of 100 nM T3) [1]: THR agonistic negative

Cc1cc(OCC(=O)O)cc(C)c1Cc1ccc(O)c(C(C)C)c1 [GC-1, sobetirome]
THR agonist classification (positive if >= 10% of activity of 100 nM T3) [1]: THR agonistic positive | THR transcriptional activity after phase I reaction ([1]; phase I group, concentration not given, RTA with 100 nM T3 (PC) = 100%): 166.3 ± 12.0% | THR transcriptional activity after phase I+II reaction [1, 4]: 160.6 ± 8.6% | Metabolic rate (parent decreased by) after the reaction [3]: 15%

Ic1ccc(-c2ccc(I)cc2)cc1 [4,4’-DIDBP, 4,4'-diiodobiphenyl]
THR agonist classification (positive if >= 10% of activity of 100 nM T3) [1]: THR agonistic negative | Metabollic rate [2]: 82%

N[C@@H](Cc1cc(I)c(Oc2cc(I)c(O)c(I)c2)c(I)c1)C(=O)O [T4, Levothyroxine]
THR agonist classification (positive if >= 10% of activity of 100 nM T3) [1]: THR agonistic positive

O=C(c1ccc(O)cc1O)c1ccc(O)cc1O [BP-2, 2,2',4,4'-tetrahydroxybenzophenone]
THR agonist classification (positive if >= 10% of activity of 100 nM T3) [1]: THR agonistic negative | Metabollic rate [3]: 11%

CCCCc1oc2ccccc2c1C(=O)c1cc(I)c(OCCN(CC)CC)c(I)c1 [Amiodarone, amiodarone hydrochloride]
THR agonist classification (positive if >= 10% of activity of 100 nM T3) [1]: THR agonistic negative

Brc1ccc(Oc2ccc(Br)cc2Br)cc1 [BDE28, BDE No. 28]
THR agonist classification (positive if >= 10% of activity of 100 nM T3) [1]: THR agonistic negative | Metabollic rate [3]: 99%

CC(C)(c1ccc(O)cc1)c1ccc(O)cc1 [BPA, bisphenol A]
THR agonist classification (positive if >= 10% of activity of 100 nM T3) [1]: THR agonistic negative | Metabollic rate [2]: 52%
